Source: patent publication US20030171218A1, “Substituted 3-heteroaryl(amino- or oxy)pyrrolidin-2-ones, their preparation and use as herbicides or plant growth regulators” (priority 2001, published 2003)

What was measured:
[1] = tested on: harmful plants such as Digitaria sanguinalis, Echinochloa crus-galli, Setaria faberi, Setaria viridis, Sorghum halepense, Abutilon theophrasti, Amaranthum …; test: Post-emergence effect on weeds (greenhouse pot test); type: in vivo, monocotyledonous and dicotyledonous weeds; conditions: application rate of 1 kg and less of active substance per hectare; treated at three-leaf stage; scored visually after about 3 to 4 weeks by comparison with untreated controls
Procedure, shortened: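 Greenhouse-grown weeds in sandy loam, sprayed at three-leaf stage (three weeks after sowing) with wettable powder or emulsion concentrate formulations at various dosages in 600 to 800 l water/ha. Effect scored visually against untreated controls after about 3 to 4 weeks.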

[2] = tested on: weed plants such as Digitaria sanguinalis, Echinochloa crus-galli, Setaria faberi, Setaria viridis, Sorghum halepense, Abutilon theophrasti, Amaranthum …; test: Pre-emergence effect on weeds (greenhouse pot test); type: in vivo, monocotyledonous and dicotyledonous weed plants; conditions: application rate of 1 kg or less of active substance per hectare; scored visually after 3 to 4 weeks by comparison with untreated controls
Procedure, shortened: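 Weed seeds or rhizome pieces sown in sandy loam and covered; compounds, formulated as wettable powders or emulsion concentrates, sprayed onto the soil surface as aqueous suspensions/emulsions at 600 to 800 l water/ha in various dosages. Greenhouse growth; visual scoring of plant damage/emergence versus untreated controls after 3 to 4 weeks.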

Row | melting point [°C] | Compound | herbicidal activity post-emergence [1] | herbicidal activity pre-emergence [2]
1 | 210 | CC(C)c1nc(N)nc(NC2CCN(c3ccccc3)C2=O)n1 (stereo not drawn) [Example A20] | very good herbicidal activity | very good herbicidal activity
2 | 77 | CC(C)(F)c1nc(N)nc(OC2CCN(c3ccccc3)C2=O)n1 (stereo not drawn) [Example A55] | very good herbicidal activity | very good herbicidal activity
3 | – | CN(c1nc(N)nc(C(C)(C)F)n1)C1CCN(c2cccc(Cl)c2)C1 (stereo not drawn) [Example E55] | very good herbicidal activity | very good herbicidal activity
4 | – | CC(F)c1nc(N)nc(N(C)C2CCN(c3cccc(C(F)(F)F)c3)C2)n1 (stereo not drawn) [Example E57] | very good herbicidal activity | very good herbicidal activity
5 | – | CC(F)c1nc(N)nc(N(C)C2CCN(c3cccc(OC(F)(F)F)c3)C2)n1 (stereo not drawn) [Example E58] | very good herbicidal activity | very good herbicidal activity
6 | – | Cc1cc(C)cc(N2CCC(N(C)c3nc(N)nc(C(C)F)n3)C2)c1 (stereo not drawn) [Example E59] | very good herbicidal activity | very good herbicidal activity
7 | – | CC(F)c1nc(N)nc(N(C)C2CCN(c3cccc(Cl)c3)C2)n1 (stereo not drawn) [Example E64] | very good herbicidal activity | very good herbicidal activity
8 | – | CC(C)c1nc(N)nc(N(C)C2CCN(c3cccc(C(F)(F)F)c3)C2)n1 (stereo not drawn) [Example E66] | very good herbicidal activity | very good herbicidal activity
9 | – | CC(C)c1nc(N)nc(N(C)C2CCN(c3cccc(OC(F)(F)F)c3)C2)n1 (stereo not drawn) [Example E67] | very good herbicidal activity | very good herbicidal activity
10 | – | Cc1cc(C)cc(N2CCC(N(C)c3nc(N)nc(C(C)C)n3)C2)c1 (stereo not drawn) [Example E68] | very good herbicidal activity | very good herbicidal activity
11 | – | CC(C)c1nc(N)nc(N(C)C2CCN(c3cccc(Cl)c3)C2)n1 (stereo not drawn) [Example E73] | very good herbicidal activity | very good herbicidal activity
12 | – | CC(F)c1nc(N)nc(OC2CCN(C(C)(C)c3cccc(Cl)c3)C2=O)n1 (stereo not drawn) [Example F1] | very good herbicidal activity | very good herbicidal activity
13 | – | CC(C)c1nc(N)nc(OC2CCN(C(C)(C)c3cccc(Cl)c3)C2=O)n1 (stereo not drawn) [Example F2] | very good herbicidal activity | very good herbicidal activity
14 | – | CC(C)(F)c1nc(N)nc(OC2CCN(C(C)(C)c3cccc(Cl)c3)C2=O)n1 (stereo not drawn) [Example F3] | very good herbicidal activity | very good herbicidal activity
